IC50 data for 16 compounds are collected here from patent US9181258B2, “Substituted 3,4-dihydropyrrolo[1,2-a]pyrazin-1(2H)-ones as protein kinase inhibitors” (NERVIANO MEDICAL SCIENCES S.R.L., priority 2011, dated 2015).

Counter-ions that a name gives are not always drawn.

The target of one assay is human PIM1 (Homo sapiens (Human), UniProt P11309). Put plainly: Biochemical assay for inhibitors of PIM1 kinase activity (trans-phosphorylation, Dowex technique). The conditions noted are these: ATP 200 μM, Aktide 25 μM, enzyme 1 nM; read-out: PIM-1 IC50. The method, then: Biochemical Assay for Inhibitors of PIM1 Kinase Activity
The inhibitory activity of putative kinase inhibitors and the potency of selected compounds were determined using a trans-phosphorylation assay.
Specific peptide or protein substrates were trans-phosphorylated by their specific ser-thr or tyr kinase in the presence of ATP traced with ^33P-γ-ATP, and in the presence of their own optimal buffer and cofactors.
At the end of the phosphorylation reaction, more than 98% unlabeled ATP and radioactive ATP were captured by an excess of the ion exchange dowex resin; the resin then settled down to the bottom of the reaction plate by gravity. Supernatant was subsequently withdrawn and transferred into a counting plate, then evaluated by β-counting.
Reagents/Assay Conditions i. Dowex Resin Preparation
500 g of wet resin (SIGMA, custom prepared resin DOWEX 1×8 200-400 mesh, 2.5 Kg) were weighed out and diluted to 2 L in 150 mM sodium formate, pH 3.00.
The resin was allowed to settle down (some hours) and then the supernatant was discarded.
After three washes as above over a couple of days, the resin was allowed to settle and two volumes (wrt the resin volume) of 150 mM sodium formate buffer were added.
The pH was then measured and should have been around 3.00.
The washed resin was stable for more than one week; the stock resin was kept at 4° C. before use.
The buffer for PIM1 assay was composed of HEPES 50 mM, at pH 7.5, with 10 mM MgCl2, 1 mM DTT, 3 μM NaVO3, and 0.2 mg/mL BSA.
Full-length human PIM1 was expressed and purified as described in Bullock A N, et al., J. Biol. Chem. 2005, 280, 41675-82.
1.7 μM PIM1 was incubated 1 h at 28° C. in the presence of 125 μM ATP.
ATP concentration: 200 μM; ^33P-γ-ATP: 6 nM; Enzyme concentration: 1 nM Substrate concentration Aktide (Chemical Abstract Service Registry Number 324029-01-8): 25 μM iv. Robotized Dowex Assay
The test mix consisted of:
1) 3× Enzyme mix (done in Kinase Buffer 3×), 5 μL/well
2) 3× substrate and ATP mix (done in ddH2O), together with ^33P-γ-ATP, 5 μL/well 3) 3× test compounds (diluted into ddH2O—3% DMSO)—5 μL/well See below for compound dilution and assay scheme […]
An automated station (Biomek FX, Beckman) was used for serial dilutions, producing 1:3 dilutions in 100% DMSO, from line A1 to A10, for all the compounds in the column.
Data were analyzed by an internally customized version of the “Assay Explorer” SW package, which provided sigmoidal fitting of the ten-dilution curves for IC50 determination in secondary assay/hit confirmation routines.

Another assay deals with human PIM2 (Homo sapiens (Human), UniProt Q9P1W9). Put plainly: PIM2 kinase inhibition assay: Dowex technique. Conditions: ATP 4 μM, Aktide 5 μM, enzyme 1.5 nM; read-out: PIM-2 IC50. Format: biochemical. The method, then: Method for PIM2 Kinase Inhibition Assay: Dowex Technique
The buffer for PIM2 assay was composed of HEPES 50 mM, at pH 7.5, with 1 mM MgCl2, 1 mM DTT, 3 μM Na3VO4, and 0.2 mg/mL BSA.
Full-length human PIM2 was expressed and purified as described in Fedorov O, et al., PNAS 2007 104, 51, 20523-28. ii. Assay Conditions (Final Concentrations)
Enzyme concentration=1.5 nM; ATP=4 μM; ^33P-γ-ATP=1 nM
Aktide substrate (Chemical Abstract Service Registry Number 324029-01-8)=5 μM iii. Robotized Dowex Assay
See above: same procedure as described for PIM1.

In the next assay the test system is BaF3-PIM1 cells. Put plainly: In vitro cell proliferation assay (CellTiter-Glo), BaF3-PIM1. Type of assay: cell-based. The conditions noted are these: 72 hours. The method, then:
In Vitro Cell Proliferation Assay
BaF3-PIM1 and MV-4-11 cells were seeded at 125 cells/well and 1250 cells/well respectively in a 384-well white plates in complete medium and treated with compounds dissolved in 0.1% DMSO, 24 h after seeding.
The cells were incubated at 37° C. and 5% CO2 and after 72 hours the plates were processed using CellTiter-Glo assay (Promega) following the manufacturer's instruction.
CellTiter-Glo was a homogenous method based on the quantification of the ATP present, an indicator of metabolitically active cells. ATP was quantified using a system based on luciferase and D-luciferin resulting into light generation. The luminescent signal was proportional to the number of cells present in culture.
Briefly 25 μl/well reagent solution were added to each wells and after 5 minutes shacking microplates were red by Envision (PerkinElmer) luminometer. The luminescent signal was proportional to the number of cells present in culture.
Inhibitory activity was evaluated comparing treated versus control data using Assay Explorer (MDL) program. IC50 was calculated using sigmoidal interpolation curve.

Chain of human PIM1 (P11309 whole entry): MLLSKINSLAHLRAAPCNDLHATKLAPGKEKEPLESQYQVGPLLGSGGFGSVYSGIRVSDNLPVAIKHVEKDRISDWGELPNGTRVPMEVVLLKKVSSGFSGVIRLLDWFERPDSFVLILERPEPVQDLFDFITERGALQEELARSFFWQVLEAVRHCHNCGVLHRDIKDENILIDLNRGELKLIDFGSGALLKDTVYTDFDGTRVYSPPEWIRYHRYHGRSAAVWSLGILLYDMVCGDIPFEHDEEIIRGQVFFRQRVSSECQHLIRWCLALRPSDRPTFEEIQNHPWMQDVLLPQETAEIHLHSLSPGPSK
Chain of human PIM2 (Q9P1W9 whole entry): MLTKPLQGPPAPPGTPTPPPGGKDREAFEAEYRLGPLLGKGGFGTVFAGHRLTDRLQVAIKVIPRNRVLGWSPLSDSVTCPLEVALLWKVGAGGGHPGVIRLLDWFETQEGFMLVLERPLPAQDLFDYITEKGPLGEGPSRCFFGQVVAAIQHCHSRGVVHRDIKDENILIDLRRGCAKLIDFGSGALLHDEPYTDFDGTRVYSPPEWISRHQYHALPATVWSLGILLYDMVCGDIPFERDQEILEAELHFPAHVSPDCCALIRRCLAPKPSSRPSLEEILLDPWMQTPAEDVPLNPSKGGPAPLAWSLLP

The IC50 is the point on the concentration scale where inhibition reaches its midpoint. Turning to `NCCC1CNC(=O)c2cc(-c3cccc(Cl)c3)c(-c3ccccc3)n21` (stereo not drawn) [Compound 17, 4-(2-aminoethyl)-7-(3-chlorophenyl)-6-phenyl-3,4-dihydropyrrolo[1,2-a]pyrazin-1(2H)-one trifluoroacetate], the results for the IC50 at human PIM1, at human PIM2 and with BaF3-PIM1 cells were 34 nM, 117 nM and 450 nM, respectively.

For `NCCC1CNC(=O)c2cc(-c3cccc(OC(F)(F)F)c3)c(-c3cccc(N)c3)n21` (stereo not drawn) [Compound 32, 4-(2-aminoethyl)-6-(3-aminophenyl)-7-[3-(trifluoromethoxy)phenyl]-3,4-dihydropyrrolo[1,2-a]pyrazin-1(2H)-one hydrochloride], the IC50 at human PIM1 was found to be 8 nM; at human PIM2, 69 nM; with BaF3-PIM1 cells, 2020 nM.

As for `NCCC1CNC(=O)c2cc(-c3cccc(OC(F)(F)F)c3)c(-c3ccc(CO)cc3)n21` (stereo not drawn) [Compound 33, 4-(2-aminoethyl)-6-[4-(hydroxymethyl)phenyl]-7-[3-(trifluoromethoxy)phenyl]-3,4-dihydropyrrolo[1,2-a]pyrazin-1(2H)-one hydrochloride], the values for the IC50 on human PIM1, at human PIM2 and with BaF3-PIM1 cells were 4 nM, 15 nM and 598 nM, respectively.

On to `NCCC1CNC(=O)c2cc(-c3cccc(C(F)(F)F)c3)c(-c3ccc(CO)cc3)n21` (stereo not drawn) [Compound 38, 4-(2-aminoethyl)-6-[4-(hydroxymethyl)phenyl]-7-[3-(trifluoromethyl)phenyl]-3,4-dihydropyrrolo[1,2-a]pyrazin-1(2H)-one hydrochloride], for which the IC50 came out at 20 nM at human PIM1, 102 nM at human PIM2 and 3030 nM in the assay with BaF3-PIM1 cells.

Turning to `NCCC1CNC(=O)c2cc(-c3cccc(C(F)(F)F)c3)c(-c3ccc(O)cc3)n21` (stereo not drawn) [Compound 43, 4-(2-aminoethyl)-6-(4-hydroxyphenyl)-7-[3-(trifluoromethyl)phenyl]-3,4-dihydropyrrolo[1,2-a]pyrazin-1(2H)-one hydrochloride], the IC50 was 12 nM on human PIM1, 21 nM at human PIM2 and 7000 nM in the assay on BaF3-PIM1 cells.

On to `NCCC1CNC(=O)c2cc(-c3ccnc(Cl)c3)c(-c3ccc(CO)cc3)n21` (stereo not drawn) [Compound 44, 4-(2-aminoethyl)-7-(2-chloropyridin-4-yl)-6-[4-(hydroxymethyl)phenyl]-3,4-dihydropyrrolo[1,2-a]pyrazin-1(2H)-one hydrochloride], for which the results for the IC50 at human PIM1, on human PIM2 and with BaF3-PIM1 cells were 24 nM, 110 nM and 6570 nM, respectively.

For `NC(=O)c1ccc(-c2c(-c3cccc(OC(F)(F)F)c3)cc3n2C(CCO)CNC3=O)cc1` (stereo not drawn) [Compound 77, 4-{4-(2-hydroxyethyl)-1-oxo-7-[3-(trifluoromethoxy)phenyl]-1,2,3,4-tetrahydropyrrolo[1,2-a]pyrazin-6-yl}benzamide], the IC50 at human PIM1 is 7 nM; on human PIM2 it was 58 nM; in the assay on BaF3-PIM1 cells, 2320 nM.

`CN(C)CCNC(=O)c1ccc(-c2c(-c3cccc(OC(F)(F)F)c3)cc3n2C(CCO)CNC3=O)cc1` (stereo not drawn) [Compound 78, N-[2-(dimethylamino)ethyl]-4-{4-(2-hydroxyethyl)-1-oxo-7-[3-(trifluoromethoxy)phenyl]-1,2,3,4-tetrahydropyrrolo[1,2-a]pyrazin-6-yl}benzamide trifluoroacetate]: the figures for the IC50 at human PIM1, on human PIM2 and with BaF3-PIM1 cells were 6 nM, 90 nM and 4070 nM, respectively.

Regarding `CN(C)C(=O)c1ccc(-c2c(-c3cccc(OC(F)(F)F)c3)cc3n2C(CCO)CNC3=O)cc1` (stereo not drawn) [Compound 79, 4-{4-(2-hydroxyethyl)-1-oxo-7-[3-(trifluoromethoxy)phenyl]-1,2,3,4-tetrahydropyrrolo[1,2-a]pyrazin-6-yl}-N,N-dimethylbenzamide], the figures for the 50% inhibitory concentration (IC50) on human PIM1, at human PIM2 and in the assay on BaF3-PIM1 cells were 13 nM, 93 nM and 1220 nM, respectively.

With `CNC(=O)c1ccc(-c2c(-c3cccc(OC(F)(F)F)c3)cc3n2C(CCO)CNC3=O)cc1` (stereo not drawn) [Compound 80, 4-{4-(2-hydroxyethyl)-1-oxo-7-[3-(trifluoromethoxy)phenyl]-1,2,3,4-tetrahydropyrrolo[1,2-a]pyrazin-6-yl}-N-methylbenzamide], the IC50 was found to be 20 nM at human PIM1, 75 nM at human PIM2 and 3810 nM with BaF3-PIM1 cells.

For the compound `CN1CCC(NC(=O)c2ccc(-c3c(-c4cccc(OC(F)(F)F)c4)cc4n3C(CCO)CNC4=O)cc2)CC1` (stereo not drawn) [Compound 81, 4-{4-(2-hydroxyethyl)-1-oxo-7-[3-(trifluoromethoxy)phenyl]-1,2,3,4-tetrahydropyrrolo[1,2-a]pyrazin-6-yl}-N-(1-methylpiperidin-4-yl)benzamide trifluoroacetate], the IC50 came out at 11 nM on human PIM1, 69 nM at human PIM2 and 6050 nM in the assay on BaF3-PIM1 cells.

Take `O=C1NCC(CCO)n2c1cc(-c1cccc(OC(F)(F)F)c1)c2-c1ccc(CO)cc1` (stereo not drawn) [Compound 84, 4-(2-hydroxyethyl)-6-[4-(hydroxymethyl)phenyl]-7-[3-(trifluoromethoxy)phenyl]-3,4-dihydropyrrolo[1,2-a]pyrazin-1(2H)-one]: the IC50 came out at 11 nM at human PIM1, 90 nM on human PIM2 and 224 nM with BaF3-PIM1 cells.

On to `NCC[C@H]1CNC(=O)c2cc(-c3cccc(OC(F)(F)F)c3)c(-c3ccc(O)cc3)n21` [Compound 93, (4S)-4-(2-aminoethyl)-6-(4-hydroxyphenyl)-7-[3-(trifluoromethoxy)phenyl]-3,4-dihydropyrrolo[1,2-a]pyrazin-1(2H)-one hydrochloride], for which the IC50 is 1 nM at human PIM1, 16 nM at human PIM2 and 699 nM with BaF3-PIM1 cells.

As for `CS(=O)(=O)c1ccc(-c2c(-c3cccc(OC(F)(F)F)c3)cc3n2[C@@H](CCN)CNC3=O)cc1` [Compound 96, (4S)-4-(2-aminoethyl)-6-[4-(methylsulfonyl)phenyl]-7-[3-(trifluoromethoxy)phenyl]-3,4-dihydropyrrolo[1,2-a]pyrazin-1(2H)-one hydrochloride], the IC50 was determined as 1 nM at human PIM1, 3 nM at human PIM2 and 5470 nM with BaF3-PIM1 cells.

For the compound `NCCC[C@H]1CNC(=O)c2cc(-c3cccc(OC(F)(F)F)c3)c(-c3ccc(O)cc3)n21` [Compound 104, (4S)-4-(3-aminopropyl)-6-(4-hydroxyphenyl)-7-[3-(trifluoromethoxy)phenyl]-3,4-dihydropyrrolo[1,2-a]pyrazin-1(2H)-one hydrochloride], the values for the IC50 at human PIM1, at human PIM2 and with BaF3-PIM1 cells were 4 nM, 48 nM and 7000 nM, respectively.

For the compound `NCCC[C@H]1CNC(=O)c2cc(-c3cccc(OC(F)(F)F)c3)c(-c3ccc(CO)cc3)n21` [Compound 105, (4S)-4-(3-aminopropyl)-6-[4-(hydroxymethyl)phenyl]-7-[3-(trifluoromethoxy)phenyl]-3,4-dihydropyrrolo[1,2-a]pyrazin-1(2H)-one hydrochloride], the values for the IC50 at human PIM1, at human PIM2 and with BaF3-PIM1 cells were 16 nM, 109 nM and 6950 nM, respectively.
